Legend:
Format in all cases: cell-based
[1] = target: T1, CDK4 (Homo sapiens, UniProt P11802); assay: CDK4 degradation (DC50, Dmax)
T1 construct: endogenous in cells

[2] = system: mantle cell lymphoma cell (Mino or JeKo-1); assay: Antiproliferative effect, MTS cell viability assay; settings: 72 h; for IC50: mantle cell lymphoma cell (Mino or JeKo-1), MTS assay, read-out: IC50 (anti-proliferation); for inhibition of cell proliferation of Mino cells: 0-1 μM, result in words
Procedure, shortened: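 Mino cells treated with compounds at 0, 0.0001, 0.001, 0.01, 0.1, 1 μM for 72 h; palbociclib and abemaciclib as positive controls. Viability by MTS, formazan absorbance read at 490 nm.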

[3] = target: T2, CDK6 (Homo sapiens, UniProt Q00534); assay: CDK6 degradation (DC50, Dmax)
T2 construct: endogenous in cells
T2 sequence (Q00534 whole entry): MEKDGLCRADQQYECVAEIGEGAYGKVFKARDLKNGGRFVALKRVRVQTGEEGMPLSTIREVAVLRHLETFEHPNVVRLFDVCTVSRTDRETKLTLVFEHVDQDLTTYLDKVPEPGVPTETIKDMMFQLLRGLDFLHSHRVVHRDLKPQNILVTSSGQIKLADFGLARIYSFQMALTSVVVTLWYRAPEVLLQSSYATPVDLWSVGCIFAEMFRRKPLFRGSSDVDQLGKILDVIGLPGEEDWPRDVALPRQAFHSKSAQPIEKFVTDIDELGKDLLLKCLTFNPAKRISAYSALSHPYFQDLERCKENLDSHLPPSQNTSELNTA

T1 sequence (P11802 whole entry): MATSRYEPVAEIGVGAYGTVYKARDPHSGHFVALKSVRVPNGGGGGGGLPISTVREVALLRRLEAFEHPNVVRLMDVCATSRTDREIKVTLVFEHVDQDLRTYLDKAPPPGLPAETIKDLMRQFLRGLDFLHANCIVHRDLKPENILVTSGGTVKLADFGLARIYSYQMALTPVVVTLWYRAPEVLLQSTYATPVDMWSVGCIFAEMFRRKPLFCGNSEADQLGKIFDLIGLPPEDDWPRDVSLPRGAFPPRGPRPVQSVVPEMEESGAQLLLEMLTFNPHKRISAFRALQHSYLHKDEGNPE

Structure (SMILES) | DC50 [1] [nM] | Dmax [1] [%] | IC50 [2] [nM] | DC50 [3] [nM] | Dmax [3] [%] | inhibition of cell proliferation of Mino cells [2]
CC(=O)c1c(C)c2cnc(Nc3ccc(N4CCN(C(=O)C5CCN(c6ccc7c(c6)C(=O)N(C6CCC(=O)NC6=O)C7=O)CC5)CC4)cn3)nc2n(C2CCCC2)c1=O (centres unmarked) [Compound 114, 5-(4-(4-(6-((6-acetyl-8-cyclopentyl-5-methyl-7-oxo-7,8-dihydropyrido[2,3-d]pyrimidin-2-yl)amino)pyridin-3-yl)piperazine-1-carbonyl)piperidin-1-yl)-2-(2,6-dioxopiperidin-3-yl) isoindoline-1,3-dione] | 50 to 200 | > 80 | < 50 | 50 to 200 | > 80 | –
CC(=O)c1c(C)c2cnc(Nc3ccc(N4CCN(CCCN(C)c5cccc6c5C(=O)N(C5CCC(=O)NC5=O)C6=O)CC4)cn3)nc2n(C2CCCC2)c1=O (centres unmarked) [Compound 103, 4-((3-(4-(6-((6-acetyl-8-cyclopentyl-5-methyl-7-oxo-7,8-dihydropyrido[2,3-d]pyrimidin-2-yl)amino)pyridin-3-yl)piperazin-1-yl)propyl)(methyl)amino)-2-(2,6-dioxopiperidin-3-yl) isoindoline-1,3-dione] | 50 to 200 | > 60 | < 50 | 50 to 200 | > 60 | dose-dependent inhibition of cell proliferation
CC(=O)c1c(C)c2cnc(Nc3ccc(N4CCN(CC5CCN(C(=O)Nc6ccc7c(c6)CN(C6CCC(=O)NC6=O)C7=O)CC5)CC4)cn3)nc2n(C2CCCC2)c1=O (centres unmarked) [Compound 42, 4-((4-(6-((6-acetyl-8-cyclopentyl-5-methyl-7-oxo-7,8-dihydropyrido[2,3-d]pyrimidin-2-yl)amino)pyridin-3-yl)piperazin-1-yl)methyl)-N-(2-(2,6-dioxopiperidin-3-yl)-1-oxoisoindolin-5-yl)piperidine-1-carboxamide] | 50 to 200 | > 80 | 50 to 200 | 50 to 200 | > 80 | –
CC(=O)c1c(C)c2cnc(Nc3ccc(N4CCN(CC5CCN(C(=O)N6CCN(c7ccc8c(c7)CN(C7CCC(=O)NC7=O)C8=O)CC6)CC5)CC4)cn3)nc2n(C2CCCC2)c1=O (centres unmarked) [Compound 32, 3-(5-(4-(4-((4-(6-((6-acetyl-8-cyclopentyl-5-methyl-7-oxo-7,8-dihydropyrido[2,3-d]pyrimidin-2-yl)amino)pyridin-3-yl)piperazin-1 - yl)methyl)piperidine-1-carbonyl)piperazin-1-yl)-1-oxoisoindolin-2-yl)piperidine-2,6-dione] | 50 to 200 | > 60 | 50 to 200 | 50 to 200 | > 60 | –
Cc1nc2c(F)cc(-c3nc(Nc4ccc(CN5CCN(C6CCN(c7ccc8c(c7)CN(C7CCC(=O)NC7=O)C8=O)CC6)CC5)cn4)ncc3F)cc2n1C(C)C (centres unmarked) [Compound 166, 3-(5-(4-(4-((6-((5-fluoro-4-(4-fluoro-1-isopropyl-2-methyl-1H-benzo[d]imidazol-6-yl)pyrimidin-2-yl)amino)pyridin-3-yl)methyl)piperazin-1-yl)piperidin-1-yl)-1-oxoisoindolin-2-yl)piperidine-2,6-dione] | 50 to 200 | > 80 | < 50 | 50 to 200 | > 60 | –
CC(=O)c1c(C)c2cnc(Nc3ccc(N4CCN(C5CCN(C(=O)N6CCC(N7CCN(c8ccc9c(c8)C(=O)N(C8CCC(=O)NC8=O)C9=O)CC7)CC6)CC5)CC4)cn3)nc2n(C2CCCC2)c1=O (centres unmarked) [Compound 88, 5-(4-(1-(4-(4-(6-((6-acetyl-8-cyclopentyl-5-methyl-7-oxo-7,8-dihydropyrido[2,3-d]pyrimidin-2-yl)amino)pyridin-3-yl)piperazin-1-yl)piperidine-1-carbonyl)piperidin-4-yl)piperazin-1-yl)-2-(2,6-dioxopiperidin-3-yl) isoindoline-1,3-dione] | > 200 | > 60 | > 200 | > 200 | > 50 | –

Second part, led by results:

DC50 [1] [nM] | Dmax [1] [%] | IC50 [2] [nM] | DC50 [3] [nM] | Dmax [3] [%] | Structure (SMILES) | inhibition of cell proliferation of Mino cells [2]
50 to 200 | > 60 | < 50 | 50 to 200 | > 60 | Cc1nc2c(F)cc(-c3nc(Nc4ccc(CC5CCN(C(=O)C6CN(c7ccc(C(=O)NC8CCC(=O)NC8=O)cc7)C6)CC5)cn4)ncc3F)cc2n1C(C)C (centres unmarked) [Compound 145, N-(2,6-dioxopiperidin-3-yl)-4-(3-(4-((6-((5-fluoro-4-(4-fluoro-1-isopropyl-2-methyl-1H-benzo[d]imidazol-6-yl)pyrimidin-2-yl)amino)pyridin-3-yl)methyl)piperidine-1-carbonyl)azetidin-1-yl)benzamide] | –
> 200 | > 60 | 50 to 200 | > 200 | > 60 | CC(=O)c1c(C)c2cnc(Nc3ccc(N4CCN(C5CCN(C(=O)N6CCN(c7ccc8c(c7)CN(C7CCC(=O)NC7=O)C8=O)CC6)CC5)CC4)cn3)nc2n(C2CCCC2)c1=O (centres unmarked) [Compound 36, 3-(5-(4-(4-(4-(6-((6-acetyl-8-cyclopentyl-5-methyl-7-oxo-7,8-dihydropyrido[2,3-d]pyrimidin-2-yl)amino)pyridin-3-yl)piperazin-1-yl)piperidine-1-carbonyl)piperazin-1-yl)-1-oxoisoindolin-2-yl)piperidine-2,6-dione] | –
> 200 | > 60 | 50 to 200 | > 200 | > 60 | CC(=O)c1c(C)c2cnc(Nc3ccc(N4CCN(C(=O)N5CCN(CCN6CCC(c7ccc8c(c7)C(=O)N(C7CCC(=O)NC7=O)C8=O)CC6)CC5)CC4)cn3)nc2n(C2CCCC2)c1=O (centres unmarked) [Compound 27, 5-(1-(2-(4-(4-(6-((6-acetyl-8-cyclopentyl-5-methyl-7-oxo-7,8-dihydropyrido[2,3-d]pyrimidin-2-yl)amino)pyridin-3-yl)piperazine-1-carbonyl)piperazin-1-yl)ethyl)piperidin-4-yl)-2-(2,6-dioxopiperidin-3-yl)isoindoline-1,3-dione] | –
50 to 200 | > 80 | < 50 | 50 to 200 | > 80 | CC(=O)c1c(C)c2cnc(Nc3ccc(C4CCN(CC5CN(c6ccc(C(=O)NC7CCC(=O)NC7=O)cc6)C5)CC4)cn3)nc2n(C2CCCC2)c1=O (centres unmarked) [Compound 127, 4-(3-((4-(6-((6-acetyl-8-cyclopentyl-5-methyl-7-oxo-7,8-dihydropyrido[2,3-d]pyrimidin-2-yl)amino)pyridin-3-yl)piperidin-1-y)methyl)azetidin-1-yl)-N-(2,6-dioxopiperidin-3-yl)benzamide] | –
50 to 200 | > 60 | 50 to 200 | 50 to 200 | > 60 | CC(=O)c1c(C)c2cnc(Nc3ccc(N4CCN(C5CCN(c6cccc7c6C(=O)N(C6CCC(=O)NC6=O)C7=O)CC5)CC4)cn3)nc2n(C2CCCC2)c1=O (centres unmarked) [Compound 77, 4-(4-(4-(6-((6-acetyl-8-cyclopentyl-5-methyl-7-oxo-7,8-dihydropyrido[2,3-d]pyrimidin-2-yl)amino)pyridin-3-yl)piperazin-1-y1)piperidin-1-yl)-2-(2,6-dioxopiperidin-3-yl) isoindoline-1,3-dione] | –
< 50 | > 80 | < 50 | < 50 | > 80 | CC(=O)c1c(C)c2cnc(Nc3ccc(N4CCN(CCCNc5ccc6c(c5)CN(C5CCC(=O)NC5=O)C6=O)CC4)cn3)nc2n(C2CCCC2)c1=O (centres unmarked) [Compound 50, 3-(5-((3-(4-(6-((6-acetyl-8-cyclopentyl-5-methyl-7-oxo-7,8-dihydropyrido[2,3-d]pyrimidin-2-yl)amino)pyridin-3-yl)piperazin-1-yl)propyl)amino)-1-oxoisoindolin-2-yl)piperidine-2,6-dione] | dose-dependent inhibition of cell proliferation
< 50 | > 80 | < 50 | < 50 | > 80 | CC(=O)c1c(C)c2cnc(Nc3ccc(N4CCN(CC5CN(c6ccc(N7CCC(=O)NC7=O)cc6)C5)CC4)cn3)nc2n(C2CCCC2)c1=O [Compound 111, 1-(4-(3-((4-(6-((6-acetyl-8-cyclopentyl-5-methyl-7-oxo-7,8-dihydropyrido[2,3-d]pyrimidin-2-yl)amino)pyridin-3-yl)piperazin-1-yl)methyl)azetidin-1-yl)phenyl) dihydropyrimidine-2,4(1H,3H)-dione] | –
50 to 200 | > 60 | 50 to 200 | 50 to 200 | > 60 | CC(=O)c1c(C)c2cnc(Nc3ccc(N4CCN(CCN(C)c5ccc6c(c5)CN(C5CCC(=O)NC5=O)C6=O)CC4)cn3)nc2n(C2CCCC2)c1=O (centres unmarked) [Compound 56, 3-(5-((2-(4-(6-((6-acetyl-8-cyclopentyl-5-methyl-7-oxo-7,8-dihydropyrido[2,3-d]pyrimidin-2-yl)amino)pyridin-3-yl)piperazin-1-yl)ethyl)(methyl)amino)-1-oxoisoindolin-2-yl)piperidine-2,6-dione] | –
> 200 | > 50 | > 200 | > 200 | > 50 | CC(=O)c1c(C)c2cnc(Nc3ccc(N4CCN(C(=O)N5CCC(CCN6CCC(c7ccc8c(c7)C(=O)N(C7CCC(=O)NC7=O)C8=O)CC6)CC5)CC4)cn3)nc2n(C2CCCC2)c1=O (centres unmarked) [Compound 29, 5-(1-(2-(1-(4-(6-((6-acetyl-8-cyclopentyl-5-methyl-7-oxo-7,8-dihydropyrido[2,3-d]pyrimidin-2-yl)amino)pyridin-3-yl)piperazine-1-carbonyl)piperidin-4-yl)ethyl)piperidin-4-yl)-2-(2,6-dioxopiperidin-3-yl)isoindoline-1,3-dione] | –

Reference: US20230295118A1 (EnhancedBio Inc., priority 2022, published 2023)
